The source of these data is ChEMBL document CHEMBL1128886, “Synthesis and pharmacological evaluation of a novel series of 5-aryl benzimidazole angiotensin II receptor antagonists” (1995).

Calls of active or inactive are those of the source. No cut-off for these calls is given here.

Assay [1] addresses T1, Type-1 angiotensin II receptor (Oryctolagus cuniculus) (UniProt P34976).
T1 sequence (whole entry): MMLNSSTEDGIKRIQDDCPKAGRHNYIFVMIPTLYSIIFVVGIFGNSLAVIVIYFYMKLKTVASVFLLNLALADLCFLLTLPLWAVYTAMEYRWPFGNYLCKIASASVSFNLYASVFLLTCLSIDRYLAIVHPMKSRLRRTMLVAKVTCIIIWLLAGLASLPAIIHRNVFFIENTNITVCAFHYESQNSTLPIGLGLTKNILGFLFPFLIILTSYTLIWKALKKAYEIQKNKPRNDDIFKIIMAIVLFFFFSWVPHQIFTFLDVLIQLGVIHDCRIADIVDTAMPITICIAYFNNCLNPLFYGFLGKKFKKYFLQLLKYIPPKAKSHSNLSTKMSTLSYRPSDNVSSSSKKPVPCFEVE
As to the kind of experiment: In vitro antagonist activity against Angiotensin II Receptor (Ang II) in isolated rabbit thoracic aorta. Type of assay: functional, tissue-based.

Assay [2] has as its system Rattus norvegicus. The experiment in a line: Evaluated in vivo for its ability to block the pressor response to Ang II in pithed rats following oral administration; NA means not active at the dose (10 mg/kg) and time tested (4 h). Type of assay: functional, organism-based.
The test system of assay [3] is Rattus norvegicus. The experiment in a line: Evaluated in vivo for its ability to block the pressor response to Ang II in pithed rats following oral administration. Format: functional.

The term pKB denotes the KB on a negative log10 scale, so that one unit is a factor of ten. For the compound `CCCCCCC(C(=O)O)n1cnc2cc(-c3ccccc3S(=O)(=O)O)ccc21` (stereo in doubt; 4), the pKB in assay [1] was found to be 7.7. Also, the KB result in the assay on Rattus norvegicus [2] was “inactive”.

In assay [1], `CCCCCC[C@@H](C(=O)N1C[C@@H](Oc2ccccc2)C[C@H]1C(=O)O)n1cnc(NC(=O)c2ccccc2S(=O)(=O)O)c1` showed a pKB of 7.6.

In turn, `CCCCCC[C@H](C(=O)N1C[C@@H](Oc2ccc(CC(=O)O)cc2)C[C@H]1C(=O)O)n1cnc(NC(=O)c2ccccc2S(=O)(=O)O)c1` registered a pKB in assay [1] of 9.7. Further, the KB in the assay with Rattus norvegicus [3] amounted to 2.8 mg/kg.

On to `CCCCCC[C@@H](C(=O)N1C[C@@H](Oc2ccc(CC(=O)O)cc2)C[C@H]1C(=O)O)n1cnc2cc(-c3ccccc3S(=O)(=O)O)ccc21`, for which, in assay [1], the negative logarithm of the KB (pKB) was determined as 7.8.

In turn, `CCCCCCC(C(=O)O)n1cnc(NC(=O)c2ccccc2S(=O)(=O)O)c1` (centres undefined) showed a pKB in assay [1] of 7.2. Besides, the KB entry with Rattus norvegicus [2] was “inactive”.

The compound `CCCCCC[C@@H](C(=O)N1C[C@@H](Oc2ccc(CC(=O)O)cc2)C[C@H]1C(=O)O)n1cnc(NC(=O)c2ccccc2S(=O)(=O)O)c1` showed a pKB in assay [1] of 8.4. In addition, the KB result in the assay with Rattus norvegicus [2] is “inactive”.

In assay [1], `CCCCCC[C@H](C(=O)N1C[C@@H](Oc2ccccc2)C[C@H]1C(=O)O)n1cnc(NC(=O)c2ccccc2S(=O)(=O)O)c1` registered a pKB of 9.1.

In assay [1], `CCCCCC[C@H](C(=O)N1C[C@@H](Oc2ccc(CC(=O)O)cc2)C[C@H]1C(=O)O)n1cnc2cc(-c3ccccc3S(=O)(=O)O)ccc21` registered a negative logarithm of the KB (pKB) of 9. The KB result with Rattus norvegicus [2] is “inactive”.

`CCCCCCC(C(=O)O)n1cnc2cc(-c3ccccc3S(=O)(=O)O)ccc21` (stereo in doubt): the pKB in assay [1] was determined as 5.6.
